The values that follow come from US12692259B2, “Morpholine-containing and piperazine-containing CXCR4 modulators and uses related thereto” (Emory University, priority 2021, dated 2026).

A short description of series [1]: Metabolic stability assay, human liver microsomes (HLM). It is filed as in vitro ADME. The settings on record: 10 min. The text has this:
Controls were processed and analyzed like the test compounds.
(In general: Microsomes from liver hold many membrane-bound enzymes, among them those of drug oxidation.)

A short description of series [2]: in vitro. The following applies: mouse, 10 min, 3 µM, pH 7.4. How it is done: Metabolic stability assay was performed at Emory University's Department of Chemistry or by Bristol Myers Squibb. The method used by Emory University's Department of Chemistry is described below.
Each method was developed in the presence of an internal standard (ISTD) d5-7-ethoxy coumarin. The column temperature was maintained at 40° C. for most of the samples otherwise noted. The detection was operated in the Agilent JetStream electrospray positive ionization using multiple reaction monitoring mode (MRM).
Other MS conditions were as follows: dwell time 100 ms; gas flow 10 L/min; nebulizer pressure 45 psi; delta EMV 200 V; fragmentor voltage and collision energy for individual compounds vary.
Test compounds were dissolved in 100% DMSO or 100% MeOH to make 10 mM stock solutions. Verapamil (Sigma Aldrich) aided as a positive control and was dissolved in 100% DMSO to make 10 mM stock solutions. The 10 mM stock solution of test and control compounds were further diluted in potassium phosphate buffer (100 mM, pH 7.4) to 500 μM to ensure the organic solvent content was <0.2%. Human liver microsomes (HLMs) were purchased from Xenotech at 20 mg/mL. NADPH (Sigma Aldrich) 10 mM stocks were prepared in deionized water.
The HLM assay was prepared in a 1.5 mL Eppendorf tube with a final volume of 1100 μL for duplicate runs. Each reaction contained phosphate buffer (928.4 μL), liver microsomes (55 μL), and test compound resulting in a final concentration of 3 μM (6.6 μL of 500 μM). The reaction was initiated with 110 μL of 10 mM NADPH. […] Before centrifugation each of the aliquoted tubes were vortexed to make sure compounds were in the solution. The aliquots were centrifuged at 12,000 g for 5 min and the supernatant removed and placed in an LC-MS vial. Each time point was assessed using LC-MS and the area, based on the extracted ion, was integrated with respect to the ISTD. […] A no-NADPH negative control with test or control compound was performed in a single run (150 μL) at the longest time point. Controls were processed and analyzed like the test compounds. Each time point was run in duplicates followed by in-between blank washes to avoid the carryover and to equilibrate the column.
The MLM assay was performed using the same procedures as those described above for the HLM assay.

A short description of series [3]: PAMPA assay. It is filed as in vitro ADME. The following applies: pH 7.4. How it is done: PAMPA assay was performed by BioAssay Systems Services or Bristol Myers Squibb. The method used by BioAssay Systems Services is described below.
Stock solutions in DMSO for all compounds (10 mM) were thawed. The assay was performed in duplicate by following the PAMPA-096 procedure for sample plating. 4% Lecithin in dodecane solution was prepared by resuspending the dried lecithin with 750 μL dodecane. PBS pH 7.4 was used as the diluent. Two sets of plates and equilibrium solutions were incubated for 4 hours at room temperature. Acceptor and equilibrium solutions were analyzed in a UV plate. OD280 nm was used for High Permeability Control (chloramphenicol). OD270 nm was used for Medium Permeability Control (diclofenac) and Low Permeability Control (theophylline). OD254 nm was used for the test compounds.
Data analysis was performed by using the peak absorbance for each respective test compound and Permeability Control to determine the Permeability Rate (Pe) via the following equation: […]
where ODA is the absorbance of Acceptor Solution, ODE is the absorbance of the Equilibrium Standard, and C is determined by the equation below: […]
where Donor Volume (VD) is 0.2 cm^3, Acceptor Volume (VA) is 0.3 cm^3, and Membrane Area (Area) is 0.24 cm^2.
(In PAMPA a lipid-coated filter parts donor from acceptor wells.)

The target of series [4] is T1, CXCR4 (Homo sapiens, UniProt P61073). The series is described as follows: Calcium flux assay (antagonist mode, SDF-1α challenge). The following applies: read-out: CXCR4 Ca^+2 Flux IC50. Set-up: Eurofins or Bristol Myers Squibb (contract assay). It is filed as cell-based. The protocol: Calcium flux assay was performed by Eurofins or Bristol Myers Squibb. The method used by Eurofins is described below.
Compound plate preparation: Vehicle controls and positive controls were prepared to ensure all assays were properly controlled. All wells were prepared using the Eurofins Discovery Services GPCRProfiler® Assay Buffer. The GPCRProfiler® Assay Buffer was a modified Hanks Balanced Salt Solution (HBSS) where HBSS was supplemented to contain 20 mM HEPES and 2.5 mM Probenecid at pH 7.4.
Agonist assay (first addition): Compound(s) supplied were plated in duplicate for each concentration assayed. During the agonist assay, the concentration(s) reflects accommodation for the dilution of compound during the antagonist assay. Please see below for further details. […] The reference agonist for each GPCR was included at Emax (the concentration where the reference agonist elicited a maximal response). The agonist assay was conducted on a FLIPR^TETRA instrument where the test compound(s), vehicle controls, and reference agonist were added to the assay plate after a fluorescence/luminescence baseline was established. The agonist assay was a total of 180 seconds and was used to assess each compound's ability to activate each GPCR assayed. Upon completion of the three minute agonist assay, the assay plate was incubated at 25° C. for a further two minutes. After the incubation period the antagonist assay was initiated.
The antagonist assay was conducted using the same assay plate that was used for the agonist assay. The antagonist assay was conducted on a FLIPR^TETRA instrument where vehicle controls and challenge concentration of reference agonist were added to appropriate wells. The antagonist assay was a total of 180 seconds and was used to assess each compound's ability to inhibit each GPCR assayed.
Data Processing—All plates were subjected to appropriate baseline corrections. Once baseline corrections were processed, maximum fluorescence/luminescence values were exported, and data manipulated to calculate percentage activation and percentage inhibition. […] Data manipulation calculation is as followed: ((Max RLU)−(Baseline Avg.))/((Positive Avg.)−(Baseline Avg.)).
For orientation: Calcium flux is commonly read through the fluorescence of an indicator in the cells.

Series [5] deals with T2, CYP2D6 (Homo sapiens, UniProt P10635).
T2 construct: purchased Corning; host or cells: insect cells (microsomes)
In words: Fluorometric CYP450 inhibition assay, CYP2D6. It is filed as in vitro ADME. The settings on record: read-out: CYP450 IC50 (μM) 2D6. How it is done: (§1) The CYP450 inhibition assays utilized microsomes from insect cells expressing human recombinant individual cDNA-expressed CYP isoforms 3A4 and 2D6, as well as the fluorogenic probe that produces fluorescent metabolite. Standard inhibitors were co-incubated with fluorogenic substrates and their inhibitory potential (IC50) was determined. Assay conditions in terms of CYP450 protein concentration and time of incubation were standardized, enzyme kinetics parameters of each fluorescent probe substrate were estimated and IC50 values of inhibitors were determined and validated on different days to check reproducibility.
(§2) A 100 mM sodium phosphate buffer was prepared and adjusted to pH 7.4. In a separate falcon tube, a 2× enzyme/substrate (E/S) solution was prepared in phosphate buffer. The final concentration of CYP2D6 (CORNING®) and 7-amido-4-methyl coumaric acid (AMMC) was 10 nM and 4 μM, and CYP3A4 (CORNING®) and 7-benzyloxy-4-(trifluoromethyl) coumarin (BFC) was 20 nM and 40 μM, respectively. In a separate falcon tube, a 2×NADPH regenerating system (NRS) was prepared in phosphate buffer.
(§3) Both enzymatic assays were conducted in a 96-well microtiter plate (Black, CORNING® COSTAR®) with a final volume of 100 μL. Preparation of the plate began with the addition of 74 μL of the E/S in the first well, and 50 μL to all subsequent wells (from 2-11). […] A 1:3 serial dilution of the test compound was conducted by removing 25 μL from the first well and diluting it with the second and so forth until the tenth row. Final concentrations yielded a range from 200 μM-0.01 μM. Well no. 11 contained no inhibitor, and well no. 12 contained no enzyme. Both were used as controls for background fluorescence. The plate was incubated for 30 min at 37° C. After incubation, the reaction was initiated by the addition of 50 μL of the 2×NRS to each well.
(§4) Immediately (within 1 min) the fluorescence was measured using a microplate reader (BIOTEK® Synergy Neo2). […] Data was exported and analyzed using Graph Pad Prism 7. […] The IC50 value was derived after the data was fitted on a 10-point curve using a four-parameter logistic regression model.

In series [6] the target is T3, CYP3A4 (Homo sapiens, UniProt P08684).
T3 construct: purchased Corning; host or cells: insect cells (microsomes)
The series is described as follows: Fluorometric CYP450 inhibition assay, CYP3A4. In kind it is in vitro ADME. The following applies: read-out: CYP450 IC50 (μM) 3A4. How it is done: as §1, §2, §3, §4

The target of series [7] is T1, CXCR4. In words: cAMP assay in CXCR4-CHO-Glo cells (GloSensor, forskolin + SDF-1α). In kind it is cell-based. Also noted: expressed in transfected cells. The text has this: Materials, reagents, and instrument—Advanced DMEM (Gibco), trypsin EDTA (0.05%, phenol red), L-glutamine, HBSS buffer with and without Ca^2+/Mg^2+ (Gibco), antibiotic-antimycotic (Gibco), hygromycin B, and geneticin selective antibiotic (G418 sulfate) were purchased from Invitrogen. Forskolin (Tocris), SDF-1α (R&D Systems), HEPES (Sigma Aldrich), FBS (Atlanta Biologicals), D-luciferin (Gold Biotechnology), sterile 60 mm tissue culture dishes, and 96-well sterile tissue culture plates were purchased from Corning.
The assay targeted CXCR4 expressed in CHO-gloSensor cells. It monitored GPCR activation based on forskolin-stimulated cAMP production in cells. The assay used a genetically encoded biosensor with its cAMP binding domain fused to luciferase. Binding of cAMP to the cAMP binding domain changed the conformation of the biosensor, leading to the activation of luciferase. The intensity of the luciferase signal (light output) resulted from the oxidation of D-luciferin to oxyluciferin is proportional to the amount of cAMP produced in the cells.
The assay was performed in triplicate using live cells in 96-well tissue culture plates. Cells were pre-incubated in the dark at room temperature for one hour in the presence of D-luciferin. Bioluminescence was quantified before and after the agonist/antagonist addition. Stock solution of forskolin and SDF-1a, was prepared in Locke-Luc buffer. Stock solutions of the test compounds were prepared in DMSO (10 mM); they were diluted by Locke's buffer for use in the assay.
CHO-Glo cells, a cell line stably expressing the GloSensor cAMP biosensor (Promega), were transfected with cDNA encoding human CXCR4 in Pires-AcGFP1 (Clontech) and a stable cell line was isolated (CXCR4-CHO-Glo cells). The CXCR4-CHO-Glo cells were grown to confluency on 60 mm tissue culture dishes. After trypsinization, the cells were plated on 96-well plates and incubated overnight. The next day, culture media in each well was aspirated and replaced with 100 μL Locke's buffer containing 4 mM D-luciferin, followed by incubation in the dark for one hour. Before the addition of agonist/antagonist, each plate was read five times at 2 min intervals to obtain basal bioluminescence values from each well. The average of these five pre-readings was used to normalize each well's response to account for differences in GloSensor expression and cell density. After five pre-readings, cAMP formation was initiated with the addition of 50 μL solution of test compound (TC) in Locke Luc buffer containing forskoline and SDF-1α. […] Luminescence was measured immediately after the addition of the antagonist solution. The measurements were taken every two minutes for 30 minutes in kinetics mode after antagonist addition. IC50 values were calculated from the 4-parameter logistic equation using Prism GraphPad.

In series [8] the target is CYP450 isoforms 3A4 (Homo sapiens, UniProt P08684). The following applies: cited from earlier work.
The target in series [9] is CYP450 isoforms 2D6 (Homo sapiens, UniProt P10635). The settings on record: cited from earlier work.
CYP450 isoforms 2D6, sequence (P10635 whole entry, canonical isoform): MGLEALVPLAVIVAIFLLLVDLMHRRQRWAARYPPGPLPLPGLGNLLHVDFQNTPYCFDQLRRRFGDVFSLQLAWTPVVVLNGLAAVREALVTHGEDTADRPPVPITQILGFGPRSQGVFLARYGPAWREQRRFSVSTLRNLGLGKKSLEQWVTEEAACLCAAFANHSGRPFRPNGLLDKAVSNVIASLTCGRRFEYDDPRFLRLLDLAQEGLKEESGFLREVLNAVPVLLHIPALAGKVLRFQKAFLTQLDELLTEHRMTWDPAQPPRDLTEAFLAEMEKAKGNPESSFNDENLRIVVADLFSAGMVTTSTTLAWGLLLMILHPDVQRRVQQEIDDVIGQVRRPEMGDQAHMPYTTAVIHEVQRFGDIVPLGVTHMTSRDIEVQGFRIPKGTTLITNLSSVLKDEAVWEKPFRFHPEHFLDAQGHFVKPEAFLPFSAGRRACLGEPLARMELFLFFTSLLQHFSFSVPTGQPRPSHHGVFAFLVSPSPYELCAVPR

T3 sequence (P08684 whole entry): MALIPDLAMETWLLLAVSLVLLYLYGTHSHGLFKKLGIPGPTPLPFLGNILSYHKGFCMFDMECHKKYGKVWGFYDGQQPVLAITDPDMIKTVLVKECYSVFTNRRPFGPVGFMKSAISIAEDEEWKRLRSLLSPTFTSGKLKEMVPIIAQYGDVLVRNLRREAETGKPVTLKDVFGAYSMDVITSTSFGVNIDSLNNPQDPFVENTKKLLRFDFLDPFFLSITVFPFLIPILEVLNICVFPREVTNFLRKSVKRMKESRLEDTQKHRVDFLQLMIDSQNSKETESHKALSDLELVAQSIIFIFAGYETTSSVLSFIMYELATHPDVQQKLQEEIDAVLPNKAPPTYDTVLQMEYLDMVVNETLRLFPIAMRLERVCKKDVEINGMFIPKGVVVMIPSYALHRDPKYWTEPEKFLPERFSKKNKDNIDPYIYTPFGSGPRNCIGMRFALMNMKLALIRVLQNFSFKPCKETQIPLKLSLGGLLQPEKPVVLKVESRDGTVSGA
T1 sequence (P61073 whole entry): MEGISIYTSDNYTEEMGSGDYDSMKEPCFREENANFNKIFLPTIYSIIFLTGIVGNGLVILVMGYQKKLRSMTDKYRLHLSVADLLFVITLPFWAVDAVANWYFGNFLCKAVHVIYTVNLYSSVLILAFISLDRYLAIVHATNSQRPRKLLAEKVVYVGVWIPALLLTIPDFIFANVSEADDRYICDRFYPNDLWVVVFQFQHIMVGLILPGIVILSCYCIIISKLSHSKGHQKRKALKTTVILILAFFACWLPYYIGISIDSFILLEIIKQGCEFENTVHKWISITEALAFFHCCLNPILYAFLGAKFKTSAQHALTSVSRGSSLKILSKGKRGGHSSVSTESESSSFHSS
T2 sequence (P10635 whole entry): as the sequence (P10635 whole entry, canonical isoform) above
CYP450 isoforms 3A4, sequence (P08684 whole entry, canonical isoform): as the sequence (P08684 whole entry) above

As a reminder, the Papp is the rate of passage across a membrane or cell layer, normalised by area and donor concentration. Read a low Papp as slow passage. The term IC50 denotes the point on the concentration scale where inhibition reaches its midpoint. For `c1ccc2c(c1)CN[C@@H](CN(CCCCN1CCOCC1)[C@H]1CCCc3cccnc31)C2` [EMU-178], the “Liver Microsomes % rem. @ 10 min. H” value in [1] amounted to 52.6%. In addition, the “Liver Microsomes % rem. @ 10 min. M” value in [2] was determined as 3.68%. Also, in series [3], the Papp at 4 h was determined as 21.2 ×10⁻⁶ cm/s. For the same compound, the IC50 in [4] was 82.5 nM; in series [5], 0.44 µM; in series [6] it was greater than 20 µM.

Regarding `CN(C[C@H]1Cc2c(cccc2N2CCN(C(=O)OCc3ccccc3)CC2)CN1)[C@H]1CCCc2cccnc21` [EMU-291], the “Liver Microsomes % rem. @ 10 min. H” value in series [1] worked out at 35.6%. Besides, in [2], the “Liver Microsomes % rem. @ 10 min. M” value is recorded as 66.4%. For the same compound, the half-inhibitory concentration (IC50) in [5] is greater than 20 µM; in series [6], greater than 20 µM; in [7], 2320 nM.

`c1cnc2c(c1)CN[C@H](CN(CCCCN1CCOCC1)[C@@H]1CCCc3cccnc31)C2` [EMU-204, (R)—N-(4-morpholinobutyl)-N—(((S)-5,6,7,8-tetrahydro-1,6-naphthyridin-7-yl)methyl)-5,6,7,8-tetrahydroquinolin-8-amine]: the “Liver Microsomes % rem. @ 10 min. H” value in [1] was 100%. In series [2], the “Liver Microsomes % rem. @ 10 min. M” value was found to be 19.6%. In addition, the apparent permeability coefficient (Papp) at 4 h in series [3] worked out at 21.5 ×10⁻⁶ cm/s. The 50% inhibitory concentration (IC50) in series [4] was 270 nM; in series [5] it was greater than 20 µM; in series [6] it was greater than 20 µM.

In the case of `NCCCCN(Cc1nc2ccccc2[nH]1)[C@H]1CCCc2cccnc21` [AMD11070, mavorixafor], the “inhibition of CYP450 isoform 3A4” value in series [8] is recorded as “significant inhibition”. In series [9], the “inhibition of CYP450 isoform 2D6” value is listed as “significant inhibition”.
